PMC12136225, “Antinociceptive effects of intrathecal Neuropeptide B/W receptor 1 agonists in mouse acute nociception, peripheral neuropathy, and inflammatory pain models” (Research Square, 2025)

Columns and labels:
[1] = system: C57BL/6 mice; assay: Carrageenan inflammatory pain model, von Frey mechanical allodynia; assay type: in vivo, mouse; conditions: for Attenuation of carrageenan-induced mechanical allodynia: i.t. 100 μg and 56 μg; for Attenuation of carrageenan-induced mechanical allodynia / Time of delayed-onset partial mechanical allodynia attenuation after administration: von Frey, n = 8; for ED50 Carrageenan von Frey: i.t. injection, 1 hour following treatment, carrageenan-induced mechanical allodynia, n = 8, 95% confidence intervals in parentheses; for Time of delayed-onset partial mechanical allodynia attenuation after administration: i.t. lower doses of 10 μg and 5.6 μg
Experimental: (§1) NPB-23 ([…]NH2) and RTIBW-16 ([desaminoTrp^1]-Tyr-Lys-Ava-Ava-Ava-Gly-Arg-Ala-Ala-Gly-Leu-Leu-NH2, compound 30 in Ref. [27]) were synthesized as previously reported. RTIBW-16 and NPB-23 were administered via i.t. injections between L4 and L5 vertebrae with an injection volume of 5 μL. The dosing of these compounds was based on previous literature.
(§2) Paclitaxel was purchased from Bio-Techne (Minneapolis, MN) and was administered in a vehicle solution containing a 1:1:18 ratio of ethanol (100%), polyethylene glycol monooleyl ether (Tokyo Chemical Industry America; Portland, OR), and saline (0.9% w/v NaCl) as previously described. A dosing cycle of paclitaxel consisted of a total of four intraperitoneal (i.p.) paclitaxel injections (8 mg/kg per injection, given every other day. Carrageenan was purchased from Sigma-Aldrich (St. Louis, MO) and made into a 0.3% w/v solution in saline for injections.
(§3) Intrathecal injections were conducted as previously described; injections occurred between the L4 and L5 vertebrae. Briefly, an ‘injection catheter’ made from a 27-gauge needle and polyethylene (PE) 20 tubing was connected to a 10 μl Hamilton syringe. Injections occurred over 5 sec and were generally accompanied by a hind paw twitch response. A 100% motor recovery rate was observed.
After use in the hot plate latency assay, the same cohort was then used for the carrageen model of inflammatory pain. Mice were given at least a one-week washout period between experimental use. Mice were habituated to the von Frey apparatus and were assessed using the same “up-down” method as described earlier. The carrageenan inflammatory pain model was induced as previously described. Briefly, an intraplantar injection of 0.3% w/v carrageenan in a 20 μL volume using a 27-gauge needle was administered into the right hind paw. […]. The left paw served as an internal control for each subject. The change in paw thickness from baseline was assessed with digital caliper measurements. Paw thickness and von Frey responses were measured over a 24-hour time course (1, 2, 3, 4, 6, 24 hr timepoints), with paw thickness measurements occurring immediately after the von Frey assay at each time point. Mechanical allodynia assessments and paw thickness measurements were conducted by observers blinded to treatment conditions. Intraplantar administration of carrageenan and digital caliper measurement of paw edema were conducted with mice restrained utilizing a plexiglass mouse restrainer (Stoelting Co., Wood Dale, IL)
(§4) Hot plate data were converted to percent maximum possible effect (% MPE) with the following equation: ([experimental test value – baseline value) / (30 sec – baseline value)] * 100). Behavioral data were analyzed using a repeated measures two-way analysis of variance (ANOVA) for RTIBW-16 and NPB-23 treatment time course analysis with time as one factor and compound dosing as a second factor [35]. Individual treatment effects were analyzed using repeated measures one-way ANOVA. Dunnett’s test was used for post hoc analysis following a significant ANOVA result. Two tailed, paired t-tests were conducted to compare the magnitude of baseline von Frey measurements to their respective pre-paclitaxel and pre-carrageenan measurements. A p value of < 0.05 was considered statistically significant. As no significant sex effect was observed, male and female data were collapsed. […] When the mean effect of a drug in an experiment was greater than 50%, the ED50 values and corresponding 95% confidence limits were calculated using linear regression, where slopes were allowed to vary. The computer program GraphPad Prism version 10.3 (GraphPad Software Inc.; San Diego, CA) was used in the statistical analyses. Data are plotted as mean ± the standard error of the mean.

[2] = system: C57BL/6 mice; assay: Paclitaxel CIPN model, von Frey mechanical allodynia; assay type: in vivo, mouse; conditions: for Duration of reversal of mechanical allodynia following treatment: i.t. 100 and 56 μg, paclitaxel CIPN, n = 8
Experimental: as §1, §2, §3
To assess mechanical allodynia within CIPN, mice were habituated to the von Frey testing environment for four consecutive days in 30-minute sessions prior to the first testing session. Baselines were measured as previously described using von Frey monofilaments (North Coast Medical; Morgan Hills, CA) to establish responses to light mechanical touch before paclitaxel or vehicle administration. During testing mice were placed atop a wire mesh screen with spaces 0.5 mm apart. Mice were singly placed beneath an inverted wire mesh basket (8 cm diameter, 15 cm height) and allowed to habituate to the apparatus for 30 minutes before testing. The von Frey assay utilizes a series of calibrated monofilaments (0.4–4.0 g stimulus intensity), applied to the left and right plantar surface of the hind paws utilizing the “up-down” method. […] Responses from the von Frey assay were measured over a 24-hour time course (1, 2, 3, 4, 6, 24 hr timepoints). […]
Hot plate data were converted to percent maximum possible effect (% MPE) with the following equation: ([experimental test value – baseline value) / (30 sec – baseline value)] * 100). Behavioral data were analyzed using a repeated measures two-way analysis of variance (ANOVA) for RTIBW-16 and NPB-23 treatment time course analysis with time as one factor and compound dosing as a second factor [35]. Individual treatment effects were analyzed using repeated measures one-way ANOVA. […]

[3] = system: C57BL/6 mice; assay: Carrageenan-induced paw edema (paw thickness, digital caliper); assay type: in vivo, mouse; conditions: i.t., 1 hour time point, change in paw thickness, n = 8
Experimental: as §1
Paclitaxel was purchased from Bio-Techne (Minneapolis, MN) and was administered in a vehicle solution containing a 1:1:18 ratio of ethanol (100%), polyethylene glycol monooleyl ether (Tokyo Chemical Industry America; Portland, OR), and saline (0.9% w/v NaCl) as previously described. […]
After use in the hot plate latency assay, the same cohort was then used for the carrageen model of inflammatory pain. […] Mice were habituated to the von Frey apparatus and were assessed using the same “up-down” method as described earlier. […] The change in paw thickness from baseline was assessed with digital caliper measurements. Paw thickness and von Frey responses were measured over a 24-hour time course (1, 2, 3, 4, 6, 24 hr timepoints), with paw thickness measurements occurring immediately after the von Frey assay at each time point. […]

[4] = system: NPBWR1; conditions: NPB-23 ref 24, 25; RTIBW-16 ref 27; cited from earlier work
Text: (§5) So far, behavioral studies have mostly been conducted in rats and relied on exogenous administration of endogenous ligands. NPB is a 29 amino acid peptide with a bromine at the C-6 position of the indole moiety in the N-terminal tryptophan (Trp). […] NPW exists in two functional peptide forms consisting of 23 and 30 amino acid residues.

[5] = system: C57BL/6 mice; assay: Acute nociception hot plate latency assay; assay type: in vivo, mouse; conditions: for Duration of significant antinociception after administration / Onset of significant antinociceptive effect / Time of peak antinociceptive effect: i.t. 56 and 100 μg, hot plate, n = 8; for ED50 Hot Plate Latency: i.t. injection, 1 hour following treatment, 52 °C hot plate, % MPE, male and female mice, n = 8, 95% confidence intervals in parentheses
Experimental: as §1, §3
Acute nociception measurements were collected via the hot plate latency assay as previously described. Mice were placed on a heated (52 °C) enclosed Hot Plate Analgesia Meter (Columbus Instruments, Columbus, OH). The latency to jump/lick/shake/flick a hind paw was recorded. A 30 second cut-off was used to prevent tissue damage. Latencies were recorded prior to administration of compounds and at each time point over the 24-hour study (0.5, 1, 1.5, 2, 3, 4, 6, 24 hr time points). Latency measurements were taken by observers blinded to treatment conditions. Mice were given a 1-week washout period between test days.
as §4

[6] = cited from earlier work
Text: as §5

Row | Substance | Attenuation of carrageenan-induced mechanical allodynia [1] | ED50 Carrageenan von Frey [1] | Time of delayed-onset partial mechanical allodynia attenuation after administration [1] [h] | Duration of reversal of mechanical allodynia following treatment ([2]; von Frey) | ED50 Paclitaxel CIPN von Frey ([2]; i.t. injection, 1 hour following treatment, reversal of paclitaxel-induced mechanical allodynia, n = 8, 95% confidence intervals in parentheses) | Reversal of CIPN mechanical allodynia at 1 hour timepoint ([2]; i.t., von Frey, 1 hour) | Effect on carrageenan-induced paw edema (initial swelling) compared to vehicle [3] | In vitro NPBWR1 agonist activity compared with NPB [4] | Duration of significant antinociception after administration [5] | Onset of significant antinociceptive effect [5] [h] | Time of peak antinociceptive effect [5] [h] | ED50 Hot Plate Latency [5] | Metabolic stability in rat plasma [6]
1 | Trp-Tyr-Lys-Pro-Ala-Ala-Gly-His-Ser-Ser-Tyr-Ser-Val-Gly-Arg-Ala-Ala-Gly-Leu-Leu-Ser-Gly-Leu-NH2 [NPB-23, truncated human NPB without a bromine at the N-terminal Trp residue; NPBWR1 agonist] | robust mechanical allodynia blockade | 19.92 (13.52–29.35) μg | 2 | up to 2 hours | 45.06 (33.91–59.88) μg | reverse the CIPN mechanical allodynia back to the baseline | significantly reduced the magnitude of initial swelling | equipotent | up to 6 hours | 0.5 | 1.5 | 18.36 (10.17–33.15) μg | –
2 | [desaminoTrp^1]-Tyr-Lys-Ava-Ava-Ava-Gly-Arg-Ala-Ala-Gly-Leu-Leu-NH2 [RTIBW-16] | fully attenuated peak carrageenan-induced mechanical allodynia | 29.47 (21.71–40.00) μg | 3 | up to 3 hours | – | – | significantly reduced the magnitude of initial swelling | – | 2 h | 0.5 | 1.5 | 42.86 (25.09–73.21) μg | improved metabolic stability in rat plasma
